According to patent publication US11230556B2 (Merck Sharp & Dohme Corp., priority 2016, dated 2022):

What follows are compounds tested against T1, human M4 muscarinic acetylcholine receptor (Homo sapiens, UniProt P08173) (assay: human FLIPR-based M4 PAM assay (CHO-K1 cells with human M4 receptor and Gαqi5, calcium dye fluorescence, acetylcholine at 20% of maximum response)). Settings: inflection point (IP) of 4 parameter logistic dose response curve, human M4 receptor + Gαqi5, FLIPR Tetra.
T1 construct: expressed in transfected cells; host or cells: CHO-K1
T1 sequence (P08173 1-479): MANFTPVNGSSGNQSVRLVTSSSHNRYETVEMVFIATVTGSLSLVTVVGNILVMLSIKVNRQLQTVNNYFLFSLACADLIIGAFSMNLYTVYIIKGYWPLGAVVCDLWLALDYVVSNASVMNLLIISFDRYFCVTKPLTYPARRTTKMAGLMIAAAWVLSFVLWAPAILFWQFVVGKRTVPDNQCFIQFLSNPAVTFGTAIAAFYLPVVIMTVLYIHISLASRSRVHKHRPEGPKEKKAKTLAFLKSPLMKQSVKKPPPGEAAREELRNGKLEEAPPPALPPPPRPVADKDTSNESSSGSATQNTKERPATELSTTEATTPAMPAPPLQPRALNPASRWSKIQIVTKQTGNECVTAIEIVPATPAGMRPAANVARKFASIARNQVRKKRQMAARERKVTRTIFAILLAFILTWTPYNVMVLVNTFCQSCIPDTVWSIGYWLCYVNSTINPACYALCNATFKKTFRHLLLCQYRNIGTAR
Assay type: cell-based
Protocol: In a typical experiment the M4 muscarinic acetylcholine receptor modulating activity of the compounds of the present invention was determined in accordance with the following experimental method. CHO-K1 cells stably transfected with human M4 receptor and chimeric G-protein Gαqi5 (Coward P, et al., Analytical Biochemistry, 270:242-248 (1999)) are thawed from liquid N2 storage, resuspended in growth medium, plated in black, clear bottom 384 well plates, and incubated 16-20 hours at 37° C., 5% CO2. On the day of assay, growth medium is removed, the cells are washed 2 times with wash buffer, and cells are incubated in dye loading buffer at 37° C., 5% CO2 for ˜1 hour. Following dye loading the cell plates are placed in a FLIPR Tetra instrument and while monitoring dye fluorescence (excitation […]), 10 uL of test substance at increasing concentrations is added, and fluorescence values are recorded for 4 min. Next, 10 uL of acetylcholine is added (final concentration calculated so as to achieve 20% of the maximum acetycholine response), and the fluorescence reading is continued for 3.5 min. In some cases, a third addition of acetylcholine (final concentration calculated to achieve 70% of the maximal acetylcholine response) is performed. The resulting dose response curves are fit to a 4 parameter logistic equation and the final result is determined as the inflection point (IP) of the curve
CHO-K1 cells stably transfected with human M4 receptor and chimeric G-protein Gαqi5 are thawed from liquid N2 storage, resuspended in growth medium, plated in black, clear bottom 384 well plates, and incubated 16-20 hours at 37° C., 5% CO2.
On the day of assay, growth medium is removed, the cells are washed 2 times with wash buffer, and cells are incubated in dye loading buffer at 37° C., 5% CO2 for ˜1 h. Following dye loading the cell plates are placed in a FLIPR Tetra instrument and while monitoring dye fluorescence ([…]), 10 uL of test substance at increasing concentrations is added, and fluorescence values are recorded for 4 min. Next, 10 uL of acetylcholine is added (final concentration calculated so as to achieve 20% of the maximum acetycholine response), and the fluorescence reading is continued for 3.5 min. In some cases, a third addition of acetylcholine (final concentration calculated to achieve 70% of the maximal acetylcholine response) is performed.
An EC50 of 212 nM was found for COc1ccc(OC2CCN(c3nc4c(cc3C)CN(C(=O)C3COC3)C4)CC2)cn1 [Example 55, (2-(4-((6-methoxypyridin-3-yl)oxy)piperidin-1-yl)-3-methyl-5,7-dihydro-6H-pyrrolo[3,4-b]pyridin-6-yl)(oxetan-3-yl)methanone] in this work.
An EC50 of 221 nM was found for COCCC(=O)N1Cc2cc(C)c(N3CCC(Oc4ccc(OC)nc4)CC3)nc2C1 [Example 56, 3-methoxy-1-(2-(4-((6-methoxypyridin-3-yl)oxy)piperidin-1-yl)-3-methyl-5,7-dihydro-6H-pyrrolo[3,4-b]pyridin-6-yl)propan-1-one] in this work.
An EC50 of 378 nM was found for COc1ccc(OC2CCN(c3nc4c(cc3C)CN(C(=O)C3CC3(F)F)C4)CC2)cn1 (centres unmarked) [Example 57, (2,2-difluorocyclopropyl)(2-(4-((6-methoxypyridin-3-yl)oxy)piperidin-1-yl)-3-methyl-5,7-dihydro-6H-pyrrolo[3,4-b]pyridin-6-yl)methanone] in this work.
An EC50 of 168 nM was found for COc1ccc(OC2CCN(c3nc4c(cc3C)CN(S(=O)(=O)C3CC3)C4)CC2)cn1 [Example 58, 6-(Cyclopropylsulfonyl)-2-(4-((6-methoxypyridin-3-yl)oxy)piperidin-1-yl)-3-methyl-6,7-dihydro-5H-pyrrolo[3,4-b]pyridine] in this work.
An EC50 of 125 nM was found for COc1ccc(OC2CCN(c3nc4c(cc3C)CN(S(C)(=O)=O)C4)CC2)cn1 [Example 59, 2-(4-((6-methoxypyridin-3-yl)oxy)piperidin-1-yl)-3-methyl-6-(methylsulfonyl)-6,7-dihydro-5H-pyrrolo[3,4-b]pyridine] in this work.
An EC50 of 20 nM was found for Cc1cc2c(nc1N1CCC(Oc3ccccc3)CC1)CN(S(C)(=O)=O)C2 [Example 60, 3-methyl-6-(methylsulfonyl)-2-(4-phenoxypiperidin-1-yl)-6,7-dihydro-5H-pyrrolo[3,4-b]pyridine] in this work.
An EC50 of 156 nM was found for COC(=O)N1Cc2cc(C)c(N3CCC(Oc4ccc(OC)nc4)CC3)nc2C1 [Example 61, methyl 2-(4-((6-methoxypyridin-3-yl)oxy)piperidin-1-yl)-3-methyl-5,7-dihydro-6H-pyrrolo[3,4-b]pyridine-6-carboxylate] in this work.
An EC50 of 114 nM was found for COC(=O)N1Cc2cc(C)c(N3CCC(Oc4ccccc4)CC3)nc2C1 [Example 62, methyl 3-methyl-2-(4-phenoxypiperidin-1-yl)-5,7-dihydro-6H-pyrrolo[3,4-b]pyridine-6-carboxylate] in this work.
An EC50 of 368 nM was found for COc1ccc(OC2CCN(c3nc4[nH]ncc4cc3C)CC2)cn1 [Example 63, 6-(4-((6-Methoxypyridin-3-yl)oxy)piperidin-1-yl)-5-methyl-1H-pyrazolo[3,4-b]pyridine] in this work.
An EC50 of 242 nM was found for COc1ccc(OC2CCN(c3nc4cn(C)nc4cc3C)CC2)cn1 [Example 64, 5-(4-((6-Methoxypyridin-3-yl)ox)piperidin-1-yl)-2,6-dimethyl-2H-pyrazolo[4,3-b]pyridine] in this work.
An EC50 of 1650 nM was found for COc1ccc(OC2CCN(c3nc4c(C)n[nH]c4cc3C)CC2)cn1 [Example 65, 5-(4-((6-Methoxypyridin-3-yl)oxy)piperidin-1-yl)-3,6-dimethyl-1H-pyrazolo [4,3-b]pyridine] in this work.
An EC50 of 1380 nM was found for COc1ccc(OC2CCN(c3nc4cnn(C)c4cc3C)CC2)cn1 [Example 66, 5-(4-((6-methoxypyridin-3-yl)oxy)piperidin-1-yl)-1,6-dimethyl-1H-pyrazolo[4,3-b]pyridine] in this work.
An EC50 of 765 nM was found for COc1ccc(OC2CCN(c3nc4nccn4cc3C)CC2)cn1 [Example 67, 7-(4-((6-methoxypyridin-3-yl)oxy)piperidin-1-yl)-6-methylimidazo[1,2-a]pyrimidine] in this work.
An EC50 of 42 nM was found for COc1ccc(OC2CCN(c3nc4c(cc3C)C(=O)CC4)CC2)cn1 [Example 69, 2-(4-((6-Methoxypyridin-3-yl)oxy)piperidin-1-yl)-3-methyl-6,7-dihydro-5H-cyclopenta[b]pyridin-5-one] in this work.
An EC50 of 63 nM was found for COc1ccc(OC2CCN(c3nc4c(cc3C)C(=O)C(F)(F)C4)CC2)cn1 [Example 70, 6,6-difluoro-2-(4-((6-methoxypyridin-3-yl)oxy)piperidin-1-yl)-3-methyl-6,7-dihydro-5H-cyclopenta[b]pyridin-5-one] in this work.
An EC50 of 1510 nM was found for COc1ccc(OC2CCN(c3nc4c(cc3C)CCC4)CC2)cn1 [Example 72, 2-(4-((6-Methoxypyridin-3-yl)oxy)piperidin-1-yl)-3-methyl-6,7-dihydro-5H-cyclopenta[b]pyridine] in this work.
An EC50 of 292 nM was found for COc1ccc(OC2CCN(c3nc4c(cc3C)C(=O)C(C)(C)C4)CC2)cn1 [Example 73, 2-(4-((6-Methoxypyridin-3-yl)oxy)piperidin-1-yl)-3,6,6-trimethyl-6,7-dihydro-5H-cyclopenta[b]pyridin-5-one] in this work.
An EC50 of 119 nM was found for COc1ccc(OC2CCN(c3nc4c(cc3C)C(=O)C(C)C4)CC2)cn1 (centres unmarked) [Example 74, 2-(4-((6-Methoxypyridin-3-yl)oxy)piperidin-1-yl)-3,6-dimethyl-6,7-dihydro-5H-cyclopenta[b]pyridin-5-one] in this work.
An EC50 of 165 nM was found for COc1ccc(OC2CCN(c3nc4c(cc3C)S(=O)(=O)NC4)CC2)cn1 [Example 75, 5-(4-((6-Methoxypyridin-3-yl)oxy)piperidin-1-yl)-6-methyl-2,3-dihydroisothiazolo[4,5-b]pyridine 1,1-dioxide] in this work.
An EC50 of 221 nM was found for Cc1cc2c(nc1N1CCC(Oc3cccc(C#N)c3)CC1)CNS2(=O)=O [Example 76, 3-((1-(6-methyl-1,1-dioxido-2,3-dihydroisothiazolo[4,5-b]pyridin-5-yl)piperidin-4-yl)oxy)benzonitrile] in this work.
An EC50 of 275 nM was found for Cc1cc2c(nc1N1CCC(Oc3ccccc3)CC1)CNS2(=O)=O [Example 77, 6-methyl-5-(4-phenoxypiperidin-1-yl)-2,3-dihydroisothiazolo[4,5-b]pyridine 1,1-dioxide] in this work.
An EC50 of 1170 nM was found for COc1ccc(OC2CCN(c3nc4[nH]c(=O)[nH]c4cc3C)CC2)cn1 [Example 79, 5-(4-((6-Methoxypyridin-3-yl)oxy)piperidin-1-yl)-6-methyl-1,3-dihydro-2H-imidazo[4,5-b]pyridin-2-one] in this work.
An EC50 of 3090 nM was found for COc1ccc(OC2CCN(c3nc4nnc(C(F)(F)F)n4cc3C)CC2)cn1 [Example 80, 7-(4-((6-Methoxypyridin-3-yl)oxy)piperidin-1-yl)-6-methyl-3-(trifluoromethyl)-[1,2,4]triazolo[4,3-a]pyrimidine] in this work.
An EC50 of 92 nM was found for COc1ccc(OC2CCN(c3nc4c(cc3C)C(=O)N3CCOCC43)CC2)cn1 (centres unmarked) [Example 82, 2-(4-((6-methoxypyridin-3-yl)oxy)piperidin-1-yl)-3-methyl-7,8,10,10a-tetrahydro-5H-pyrido[2′,3′:3,4]pyrrolo[2,1-c][1,4]oxazin-5-one] in this work.
An EC50 of 25 nM was found for “(R)-2-(4-((1,3-dihydroisobenzofuran-5-yl)oxy)piperidin-1-yl)-3-methyl-8,9,10,10a-tetrahydropyrido[2′,3′:3,4]pyrrolo[1,2-a]pyrazin-5(7H)-one and (S)-2-(4-((1,3-dihydroisobenzofuran-5-yl)oxy)piperidin-1-yl)-3-methyl-8,9,10,10a-tetrahydropyrido[2′,3′:3,4]pyrrolo[1,2-a]pyrazin-5(7H)-one [Example 83B]” in this work.
An EC50 of 267 nM was found for “(R)-2-(4-((6-Methoxypyridin-3-yl)oxy)piperidin-1-yl)-3,7-dimethylfuro[3,4-b]pyridin-5(7H)-one and (S)-2-(4-((6-methoxypyridin-3-yl)oxy)piperidin-1-yl)-3,7-dimethylfuro[3,4-b]pyridin-5(7H)-one [Example 29A]” in this work.
